Results as given in patent publication US20060024376A1, “Methods and compositions for reducing toxicity associated with leflunomide treatment” (The University of Chicago, priority 2004, published 2006).
“And” between values parts separate entries of the source, which are not always exact repeats. Equal entries are not always repeated.

Tests used:
[1] = Leflunomide toxicity measured by hematocrit; format: in vivo, Lewis rats; conditions: for Hct Week 0 / Hct Week 1 / Hct Week 2 / Hct Week 3 / Hct Week 4: individual rat; for Hct Week 0: baseline hematocrit; for Hct Week 1: week 1 of therapy; for Hct Week 2: week 2 of therapy; for Hct Week 3: week 3 of therapy; for Hct Week 4: week 4 of therapy
Procedure: The experiment of Example 2 was repeated in Lewis rats and the hematocrit measured weekly for four weeks. The rats receiving treatment were divided into five groups wherein each group received 30/mg/kg/day leflunomide, a toxic, high dose. Group I received leflunomide only. Group II received the leflunomide dose plus 36/mg/kg/day of sodium orotate; group III received the leflunomide dose plus 100 mg/kg/day of sodium orotate; group IV received the leflunomide dose plus 88 mg/kg/day of orotic acid; and group V received the leflunomide dose plus 250 mg/kg/day of uridine given IP. A baseline hematocrit was measured, and hematocrits of each rat were measured at weeks 1-4 post commencement of therapy.

[2] = tested on: heart transplants from Brown-Norway rats; assay: Heart transplant acute rejection: graft survival and inflammation score; format: in vivo, Lewis Rats; conditions: for Graft survival / Inflammation score (Mean) (0-3): orotic acid 0 mg/kg/day; for Inflammation score (Mean) (0-3): 0 = no inflammation
Procedure: Treatments included 0, 5, 10 or 15 mg/kg of leflunomide in combination with 0 or 100 mg/kg orotic acid.

[3] = background statement, cited from earlier work

Cc1oncc1C(=O)Nc1ccc(C(F)(F)F)cc1 [leflunomide, N-(4-trifluoromethylphenyl)-5-methylisoxazol-4-carboxamide]
Hct Week 4, group Mean ([1]; group mean, week 4): Mean: 23.8 | Hct Week 0 ([1]; listed as L 30): 53 and 54 and 55 and 52 | Hct Week 0 ([1]; listed as L30): 51 and 57 | Hct Week 1 ([1]; listed as L 30): 53 and 55 and 49 and 50 | Hct Week 1 ([1]; listed as L30): 47 and 52 | Hct Week 2 ([1]; listed as L 30): 44 and 54 and 48 and 46 | Hct Week 2 ([1]; listed as L30): 39 and 46 | Hct Week 3 ([1]; listed as L 30): 41 and 37 (2×) and 33 | Hct Week 3 ([1]; listed as L30): 31 and 33 | Hct Week 4 ([1]; listed as L 30): 30 (2×) and 24 and 22 | Hct Week 4 ([1]; listed as L30): 17 and 20 | Graft survival ([2]; leflunomide 5 mg/kg/day): >30 days | Inflammation score (Mean) (0-3) ([2]; leflunomide 5 mg/kg/day): 2.0 | Graft survival ([2]; leflunomide 10 mg/kg/day): >30 days | Inflammation score (Mean) (0-3) ([2]; leflunomide 10 mg/kg/day): 1.7 | Graft survival ([2]; leflunomide 15 mg/kg/day): >30 days | Inflammation score (Mean) (0-3) ([2]; leflunomide 15 mg/kg/day): 1.5 | Intensity of the rejection reaction (inflammation score) ([2]; leflunomide 5, 10, 15 mg/kg, dose-related): reduced the intensity of the rejection reaction

O=C(O)c1cc(=O)[nH]c(=O)[nH]1 [orotic acid]
bioavailability ([3]; no test described): approximately 50% | Effect of orotic acid on efficacy of leflunomide to reduce the rejection reaction ([2]; orotic acid 100 mg/kg with leflunomide 5-15 mg/kg): did not significantly affect the efficacy of leflunomide

CC(=O)OC[C@H]1O[C@@H](n2ccc(=O)[nH]c2=O)[C@H](OC(C)=O)[C@@H]1OC(C)=O [TAU, 2′, 3′, 5′-tri-O-acetyl uridine]
oral bioavailability [3]: orally bioavailable
